# Results from US6191135A, “Neurokinin antagonists” (Boehringer Ingelheim KG, priority 1994, dated 2001).
# Read-outs that look alike come from different tables or passages of the source.
# Target: T1, NK1 -receptor (substance P-receptor) (Homo sapiens, UniProt P25103)
# T1 construct: intact human lymphoblastoma cells (IM-9) which express NK1 -receptors; endogenous in cells; host or cells: IM-9 human lymphoblastoma cells
# Test: NK1-receptor affinity: displacement of 125I labelled substance P on intact human lymphoblastoma cells (IM-9)
# Assay type: binding
# Details: intact human lymphoblastoma cells (IM-9) expressing NK1-receptors
# Experimental: The receptor affinity for the NK1 -receptor (substance P-receptor) was determined on intact human lymphoblastoma cells (IM-9) which express NK1 -receptors, and the displacement of ^125 I labelled substance P was measured.
# T1 sequence (P25103 whole entry): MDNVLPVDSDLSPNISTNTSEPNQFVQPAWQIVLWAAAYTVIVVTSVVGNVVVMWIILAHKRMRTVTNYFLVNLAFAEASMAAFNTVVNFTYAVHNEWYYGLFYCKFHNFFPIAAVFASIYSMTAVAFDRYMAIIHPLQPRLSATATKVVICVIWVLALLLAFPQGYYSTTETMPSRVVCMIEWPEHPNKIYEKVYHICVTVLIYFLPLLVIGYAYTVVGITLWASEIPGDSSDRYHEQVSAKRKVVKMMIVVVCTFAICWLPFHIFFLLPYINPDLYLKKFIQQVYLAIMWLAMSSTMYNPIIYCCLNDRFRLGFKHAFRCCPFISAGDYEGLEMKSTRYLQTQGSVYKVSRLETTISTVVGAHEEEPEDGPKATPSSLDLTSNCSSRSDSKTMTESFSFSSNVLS
SMILES,Ki (read-out: Ki) [nM],Ki (Ki) [nM]
"COc1ccccc1C(CNCc1cc(C(F)(F)F)cc(C(F)(F)F)c1)N1CCN(c2ccccc2)CC1 (centres unmarked) [Example 1, 3,5-Bistrifluoromethylbenzyl-[2-(2-methoxyphenyl)-2-(4-phenylpiperazine-1-yl)-ethyl]-amine]",333,–
"COc1ccccc1C(CN(Cc1cc(C(F)(F)F)cc(C(F)(F)F)c1)C(C)=O)N1CCN(c2ccccc2)CC1 (centres unmarked) [Example 2, N-3,5-Bistrifluoromethylbenzyl-N-[2-(2-methoxyphenyl)-2-(4-phenylpiperazine-1-yl)-ethyl]-acetamide]",909,–
"FC(F)(F)c1cc(CNCC(c2ccccc2)N2CCN(c3ccccc3)CC2)cc(C(F)(F)F)c1 (centres unmarked) [Example 3, 3,5-Bistrifluoromethylbenzyl-[2-phenyl-2-(4-phenylpiperazine-1-yl)-ethyl]-amine]",800,–
"COc1ccccc1C(CNCc1cc(C(F)(F)F)cc(C(F)(F)F)c1)N1CCN(c2ccccc2C)CC1 (centres unmarked) [Example 19, 3,5-Bistrifluoromethylbenzyl-[2-(2-methoxyphenyl)-2-(4-(2-methylphenyl)-piperazine-1-yl)-ethyl]-amine]",580,–
"COc1ccccc1C(CNCc1cc(C(F)(F)F)cc(C(F)(F)F)c1)N1CCN(c2cccc(C)c2C)CC1 (centres unmarked) [Example 20, 3,5-Bistrifluoromethylbenzyl-[2-(2-methoxyphenyl)-2-(4-(2,3-dimethylphenyl)-piperazine-1-yl)-ethyl]-amine]",520,–
"COc1ccccc1C(CNCc1cc(C(F)(F)F)cc(C(F)(F)F)c1)N1CCN(Cc2ccccc2)CC1 (centres unmarked) [Example 22, 3,5-Bistrifluoromethylbenzyl-[2-(2-methoxyphenyl)-2-(4-benzylpiperazine-1-yl)-ethyl]-amine]",154,–
"COc1ccccc1C(CNCc1cc(C(F)(F)F)cc(C(F)(F)F)c1)N1CCN(C(C)c2ccccc2)CC1 (centres unmarked) [Example 23, 3,5-Bistrifluoromethylbenzyl-[2-(2-methoxyphenyl)-2-(4-(1-phenylethyl)-piperazine-1-yl)-ethyl]-amine]",108,–
"COc1ccccc1C(CNCc1cc(C(F)(F)F)cc(C(F)(F)F)c1)N1CCN(CCc2ccccc2)CC1 (centres unmarked) [Example 26, 3,5-Bistrifluoromethylbenzyl-[2-(2-methoxyphenyl)-2-(4-(2-phenylethyl)-piperazine-1-yl)-ethyl]-amine]",7,–
"COc1ccccc1C(CNCc1cc(C(F)(F)F)cc(C(F)(F)F)c1)N1CCN(Cc2ccc3c(c2)OCO3)CC1 (centres unmarked) [Example 27, 3,5-Bistrifluoromethylbenzyl-[2-(2-methoxyphenyl)-2-(4-(3,4-methylenedioxybenzyl)-piperazine-1-yl)-ethyl]-amine]",111,–
"COc1ccccc1C(CNCc1cc(C(F)(F)F)cc(C(F)(F)F)c1)N1CCN(c2ccccn2)CC1 (centres unmarked) [Example 28, 3,5-Bistrifluoromethylbenzyl-[2-(2-methoxyphenyl)-2-(4-(2-pyridyl)-piperazine-1-yl)-ethyl]-amine]",102,–
"COc1ccccc1C(CNCc1cc(C(F)(F)F)cc(C(F)(F)F)c1)N1CCN(c2ccc3ccccc3n2)CC1 (centres unmarked) [Example 29, 3,5-Bistrifluoromethylbenzyl-[2-(2-methoxyphenyl)-2-(4-(2-quinolinyl)-piperazine-1-yl)-ethyl]-amine]",119,–
"CN1CCN(C(CNCc2cc(C(F)(F)F)cc(C(F)(F)F)c2)c2ccccc2)CC1 (centres unmarked) [Example 30, 3,5-Bistrifluoromethylbenzyl-[2-phenyl-2-(4-methylperazine-1-yl)-ethyl]-amine]",90,–
"COc1ccccc1C(CNCc1cc(C(F)(F)F)cc(C(F)(F)F)c1)N1CCN(C)CC1 (centres unmarked) [Example 31, 3,5-Bistrifluoromethylbenzyl-[2-(2-methoxyphenyl)-2-(4-methylpiperazine-1-yl)-ethyl]-amine]",93,–
"CCCN1CCN(C(CNCc2cc(C(F)(F)F)cc(C(F)(F)F)c2)c2ccccc2OC)CC1 (centres unmarked) [Example 32, 3,5-Bistrifluoromethylbenzyl-[2-(2-methoxyphenyl)-2-(4-(1-propyl)-piperazine-1-yl)-ethyl]-amine]",23,–
"COc1ccccc1C(CNCc1cc(C(F)(F)F)cc(C(F)(F)F)c1)N1CCN(C(C)C)CC1 (centres unmarked) [Example 34, 3,5-Bistrifluoromethylbenzyl-[2-(2-methoxyphenyl)-2-(4-(2-propyl)-piperazine-1-yl)-ethyl]-amine]",38,–
"COc1ccccc1C(CNCc1cc(C(F)(F)F)cc(C(F)(F)F)c1)N1CCN(C2CCCC2)CC1 (centres unmarked) [Example 35, 3,5-Bistrifluoromethylbenzyl-[2-(2-methoxyphenyl)-2-(4-cyclopentylpiperazine-1-yl)-ethyl]-amine]",16,–
"FC(F)(F)c1cc(CNCC(c2ccccc2)N2CCN(C3CCCCC3)CC2)cc(C(F)(F)F)c1 (centres unmarked) [Example 36, 3,5-Bistrifluoromethylbenzyl-[2-phenyl-2-(4-cyclohexylpiperazine-1-yl)-ethyl]-amine]",18,–
"COc1ccccc1C(CNCc1cc(C(F)(F)F)cc(C(F)(F)F)c1)N1CCN(C2CCCCC2)CC1 (centres unmarked) [Example 39, 3,5-Bistrifluoromethylbenzyl-[2-(2-methoxyphenyl)-2-(4-cyclohexylpiperazine-1-yl)-ethyl]-amine]",16,–
"FC(F)(F)c1cc(CNCC(c2ccc(Cl)c(Cl)c2)N2CCN(C3CCCCC3)CC2)cc(C(F)(F)F)c1 (centres unmarked) [Example 49, 3,5-Bistrifluoromethylbenzyl-[2-(3,4-dichlorophenyl)-2-(4-cyclohexylpiperazine-1-yl]-ethyl]-amine]",37,–
"COc1ccccc1C(CNCc1cc(C(F)(F)F)cc(C(F)(F)F)c1)N1CCN(C2CCCCCC2)CC1 (centres unmarked) [Example 53, 3,5-Bistrifluoromethylbenzyl-[2-(2-methoxyphenyl)-2-(4-cycloheptylpiperazine-1-yl)-ethyl]-amine]",5,–
"COc1ccccc1C(CNC(=O)Cc1ccc(Cl)cc1)N1CCN(C2CCCCC2)CC1 (centres unmarked) [Example 61, N-[2-(2-Methoxyphenyl)-2-(4-cyclohexylpiperazine-1-yl)-ethyl]-2-(4-chlorophenyl)-acetamide]",–,851

# Further lines, with some results ahead:
Ki (read-out: Ki) [nM],SMILES,Ki (Ki) [nM]
368,"COc1ccccc1C(CNCc1cc(C(F)(F)F)cc(C(F)(F)F)c1)N1CCCC(c2ccccc2)C1 (single isomer, unassigned) [Example 86, 3,5-Bistrifluoromethylbenzyl-[2-(2-methoxyphenyl)-2-(3-phenylpiperidine-1-yl)-ethyl]-amine]",–
20,"COc1ccccc1C(CNCc1cc(C(F)(F)F)cc(C(F)(F)F)c1)N1CCN(CCC2CCCCC2)CC1 (centres unmarked) [Example 54, 3,5-Bistrifluoromethylbenzyl-[2-(2-methoxyphenyl)-2-(4-(2-cyclohexylethyl)-piperazine-1-yl)-ethyl]-amine]",–
64,"COc1ccccc1C(CNCc1cc(C(F)(F)F)cc(C(F)(F)F)c1)N1CCN(CCO)CC1 (centres unmarked) [Example 57, 3,5-Bistrifluoromethylbenzyl-[2-(2-methoxyphenyl)-2-(4-(2-hydroxyethyl)-piperazine-1-yl)-ethyl]-amine]",–
23,"COc1ccccc1C(CNC(=O)c1cc(C(F)(F)F)cc(C(F)(F)F)c1)N1CCN(C2CCCCC2)CC1 (centres unmarked) [Example 58, N-[2-(2-Methoxyphenyl)-2-(4-cyclohexylpiperazine-1-yl)-ethyl]-3,5-bistrifluoromethylbenzamide]",–
276,"COc1ccccc1C(CNC(=O)Cc1ccc(Cl)c(Cl)c1)N1CCN(C2CCCCC2)CC1 (centres unmarked) [Example 62, N-[2-(2-Methoxyphenyl)-2-(4-cyclohexylpiperazine-1-yl)-ethyl]-2-(3,4-dichlorophenyl)-acetamide]",–
273,"COc1ccccc1C(CNC(=O)Cc1ccccc1C(F)(F)F)N1CCN(C2CCCCC2)CC1 (centres unmarked) [Example 64, N-[2-(2-Methoxyphenyl)-2-(4-cyclohexylpiperazine-1-yl)-ethyl]-2-(2-trifluoromethylphenyl)-acetamide]",–
23,"COc1ccccc1C(CNCCc1cc(C(F)(F)F)cc(C(F)(F)F)c1)N1CCN(C2CCCCC2)CC1 (centres unmarked) [Example 66, 2-(3,5-Bistrifluoromethylphenyl)-2'-(2-methoxyphenyl)-2'-(4-cyclohexylpiperazine-1-yl)-diethylamine]",–
14,"COc1ccccc1C(CNC(=O)c1cc(C(F)(F)F)cc(C(F)(F)F)c1)N1CCN(C2CCCCC2)CC1 (centres unmarked) [Example 67, N-[2-(2-Methoxyphenyl)-2-(4-cyclohexylpiperazine-1-yl)-ethyl]-3,5-bistrifluoromethylbenzamide]",–
3,"COc1ccccc1C(CNC(=O)Cc1cc(C(F)(F)F)cc(C(F)(F)F)c1)N1CCN(C2CCCCCC2)CC1 (centres unmarked) [Example 68, N-[2-(2-Methoxyphenyl)-2-(4-cycloheptylpiperazine-1-yl)-ethyl]-2-(3,5-bistrifluoromethyl-phenyl)-acetamide]",–
16,"COc1ccccc1C(CNCCc1cc(C(F)(F)F)cc(C(F)(F)F)c1)N1CCN(C2CCCCCC2)CC1 (centres unmarked) [Example 69, 2-(3,5-Bistrifluoromethylphenyl)-2'-(2-methoxyphenyl)-2'-(4-cycloheptylpiperazine-1-yl)-diethylamine]",–
700,"COc1ccccc1C(CNC(=O)c1cc(C(F)(F)F)cc(C(F)(F)F)c1)N1CCCCC1 (centres unmarked) [Example 75, N-[2-(2-Methoxyphenyl)-2-piperidin-1-yl-ethyl]-3,5-bistrifluoromethylbenzamide]",–
250,"COc1ccccc1C(CNC(=O)Cc1cc(C(F)(F)F)cc(C(F)(F)F)c1)N1CCCCC1 (centres unmarked) [Example 78, N-[2-(2-Methoxyphenyl)-2-piperidin-1-yl-ethyl]-2-(3,5-bistrifluoromethylphenyl)acetamide]",–
46,"COc1ccccc1C(CNCCc1cc(C(F)(F)F)cc(C(F)(F)F)c1)N1CCCCC1 (centres unmarked) [Example 79, 2-(3,5-Bistrifluoromethylphenyl)-2'-(2-methoxyphenyl)-2'-piperidine-1-yl-diethylamine]",–
43,"COc1ccccc1C(CNCc1cc(C(F)(F)F)cc(C(F)(F)F)c1)N1CCCCC1C (centres unmarked) [Example 80, 3,5-Bistrifluoromethylbenzyl-[2-(2-methoxyphenyl)-2-(2-methylpiperidine-1-yl)-ethyl]-amine]",–
